Laboratory results reported in PubChem BioAssay (NCI).
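In this assay, cells in 96-well plates receive the compound at five concentrations for 48 hours. Endpoints are linearly interpolated between the surrounding concentrations. TGI denotes the concentration required for complete inhibition of growth.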

Test system: SNB-78 CNS
Assay: NCI-60 cell line screen, 48 h

Structure (SMILES)	TGI [µM]
c1ccc(CNc2ccc3[nH]c4cnccc4c3c2)cc1	38.5
OC1CC1Sc1ccccc1 (configuration not stated)	> 100
CCOC(=O)C(C(C)=O)C1CC=CC1 (configuration not stated)	> 100

Test system: RPMI-8226 leukemia
Assay: NCI-60 cell line screen, 48 h

Structure (SMILES)	TGI [µM]
COC(=O)C1=C(C(=O)OC)C2(C)OC1C(=O)C21CC1 (configuration not stated)	42.7
CC(=O)COC(=O)CC(C)=O	> 100
c1ccc(CNc2ccc3[nH]c4cnccc4c3c2)cc1	54.7
OC1CC1Sc1ccccc1 (configuration not stated)	83.4
CCOC(=O)C(C(C)=O)C1CC=CC1 (configuration not stated)	> 100

Test system: KM20L2 colon
Assay: NCI-60 cell line screen, 48 h

Structure (SMILES)	TGI [µM]
COC(=O)C1=C(C(=O)OC)C2(C)OC1C(=O)C21CC1 (configuration not stated)	65.7
CC(=O)COC(=O)CC(C)=O	> 100
c1ccc(CNc2ccc3[nH]c4cnccc4c3c2)cc1	30.9
CCOC(=O)C(C(C)=O)C1CC=CC1 (configuration not stated)	> 100

Test system: TK-10 renal
Assay: NCI-60 cell line screen, 48 h

Structure (SMILES)	TGI [µM]
CC(=O)COC(=O)CC(C)=O	> 100
c1ccc(CNc2ccc3[nH]c4cnccc4c3c2)cc1	36.2
OC1CC1Sc1ccccc1 (configuration not stated)	> 100
CCOC(=O)C(C(C)=O)C1CC=CC1 (configuration not stated)	> 100

Test system: M14 melanoma
Assay: NCI-60 cell line screen, 48 h

Structure (SMILES)	TGI [µM]
COC(=O)C1=C(C(=O)OC)C2(C)OC1C(=O)C21CC1 (configuration not stated)	34.9
CC(=O)COC(=O)CC(C)=O	> 100
c1ccc(CNc2ccc3[nH]c4cnccc4c3c2)cc1	32.9
OC1CC1Sc1ccccc1 (configuration not stated)	> 100
CCOC(=O)C(C(C)=O)C1CC=CC1 (configuration not stated)	> 100

Test system: HCC-2998 colon
Assay: NCI-60 cell line screen, 48 h

Structure (SMILES)	TGI [µM]
COC(=O)C1=C(C(=O)OC)C2(C)OC1C(=O)C21CC1 (configuration not stated)	53
CC(=O)COC(=O)CC(C)=O	> 100
c1ccc(CNc2ccc3[nH]c4cnccc4c3c2)cc1	33.2
OC1CC1Sc1ccccc1 (configuration not stated)	> 100
CCOC(=O)C(C(C)=O)C1CC=CC1 (configuration not stated)	> 100

Test system: RXF 393 renal
Assay: NCI-60 cell line screen, 48 h

Structure (SMILES)	TGI [µM]
COC(=O)C1=C(C(=O)OC)C2(C)OC1C(=O)C21CC1 (configuration not stated)	32.3
CC(=O)COC(=O)CC(C)=O	> 100
c1ccc(CNc2ccc3[nH]c4cnccc4c3c2)cc1	26.8
OC1CC1Sc1ccccc1 (configuration not stated)	> 100
CCOC(=O)C(C(C)=O)C1CC=CC1 (configuration not stated)	> 100

Test system: SNB-19 CNS
Assay: NCI-60 cell line screen, 48 h

Structure (SMILES)	TGI [µM]
COC(=O)C1=C(C(=O)OC)C2(C)OC1C(=O)C21CC1 (configuration not stated)	> 100
CC(=O)COC(=O)CC(C)=O	> 100
c1ccc(CNc2ccc3[nH]c4cnccc4c3c2)cc1	29.6
OC1CC1Sc1ccccc1 (configuration not stated)	> 100
CCOC(=O)C(C(C)=O)C1CC=CC1 (configuration not stated)	> 100

Test system: U251 CNS
Assay: NCI-60 cell line screen, 48 h

Structure (SMILES)	TGI [µM]
COC(=O)C1=C(C(=O)OC)C2(C)OC1C(=O)C21CC1 (configuration not stated)	> 100
CC(=O)COC(=O)CC(C)=O	> 100
c1ccc(CNc2ccc3[nH]c4cnccc4c3c2)cc1	32
OC1CC1Sc1ccccc1 (configuration not stated)	> 100
CCOC(=O)C(C(C)=O)C1CC=CC1 (configuration not stated)	> 100

Test system: A549 NSCLC
Assay: NCI-60 cell line screen, 48 h

Structure (SMILES)	TGI [µM]
COC(=O)C1=C(C(=O)OC)C2(C)OC1C(=O)C21CC1 (configuration not stated)	> 100
CC(=O)COC(=O)CC(C)=O	> 100
c1ccc(CNc2ccc3[nH]c4cnccc4c3c2)cc1	34.7
OC1CC1Sc1ccccc1 (configuration not stated)	> 100
CCOC(=O)C(C(C)=O)C1CC=CC1 (configuration not stated)	> 100

Test system: LXFL 529 NSCLC
Assay: NCI-60 cell line screen, 48 h

Structure (SMILES)	TGI [µM]
COC(=O)C1=C(C(=O)OC)C2(C)OC1C(=O)C21CC1 (configuration not stated)	35.1
CC(=O)COC(=O)CC(C)=O	> 100
c1ccc(CNc2ccc3[nH]c4cnccc4c3c2)cc1	30.5
OC1CC1Sc1ccccc1 (configuration not stated)	89.2
CCOC(=O)C(C(C)=O)C1CC=CC1 (configuration not stated)	> 100

Test system: SW-620 colon
Assay: NCI-60 cell line screen, 48 h

Structure (SMILES)	TGI [µM]
COC(=O)C1=C(C(=O)OC)C2(C)OC1C(=O)C21CC1 (configuration not stated)	38.6
CC(=O)COC(=O)CC(C)=O	> 100
c1ccc(CNc2ccc3[nH]c4cnccc4c3c2)cc1	42.2
OC1CC1Sc1ccccc1 (configuration not stated)	78.4
CCOC(=O)C(C(C)=O)C1CC=CC1 (configuration not stated)	> 100

Test system: OVCAR-3 ovarian
Assay: NCI-60 cell line screen, 48 h

Structure (SMILES)	TGI [µM]
COC(=O)C1=C(C(=O)OC)C2(C)OC1C(=O)C21CC1 (configuration not stated)	55.8
CC(=O)COC(=O)CC(C)=O	> 100
c1ccc(CNc2ccc3[nH]c4cnccc4c3c2)cc1	27
OC1CC1Sc1ccccc1 (configuration not stated)	78.7
CCOC(=O)C(C(C)=O)C1CC=CC1 (configuration not stated)	> 100

Test system: DLD-1 colon
Assay: NCI-60 cell line screen, 48 h

Structure (SMILES)	TGI [µM]
COC(=O)C1=C(C(=O)OC)C2(C)OC1C(=O)C21CC1 (configuration not stated)	51.1
CC(=O)COC(=O)CC(C)=O	> 100
c1ccc(CNc2ccc3[nH]c4cnccc4c3c2)cc1	31.9
OC1CC1Sc1ccccc1 (configuration not stated)	> 100
CCOC(=O)C(C(C)=O)C1CC=CC1 (configuration not stated)	> 100

Test system: 786-0 renal
Assay: NCI-60 cell line screen, 48 h

Structure (SMILES)	TGI [µM]
COC(=O)C1=C(C(=O)OC)C2(C)OC1C(=O)C21CC1 (configuration not stated)	> 100
